Results: patent publication US6426413B1, “Inhibitors of caspases” (Vertex Pharmaceuticals Incorporated, priority 1998, dated 2002)

Tests used:
[1] = biological target: T1, ICE Caspase-1 (Homo sapiens, UniProt P29466); assay: ICE (Caspase-1) enzyme inhibition assay, Ki; format: biochemical; conditions: in vitro enzyme assay
T1 sequence (P29466 120-297 limits assumed): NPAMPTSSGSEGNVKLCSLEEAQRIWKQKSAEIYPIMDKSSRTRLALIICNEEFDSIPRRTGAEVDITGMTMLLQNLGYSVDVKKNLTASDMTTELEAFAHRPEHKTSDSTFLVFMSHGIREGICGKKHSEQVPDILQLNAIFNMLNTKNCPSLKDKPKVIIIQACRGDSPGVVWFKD
T1 sequence (P29466 317-404 limits assumed): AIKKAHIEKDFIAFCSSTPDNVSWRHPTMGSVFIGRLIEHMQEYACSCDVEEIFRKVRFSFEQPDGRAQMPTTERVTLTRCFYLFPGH
Experimental: This assay is run using an Succinyl-Tyr-Val-Ala-Asp-p-Nitroanilide substrate. Synthesis of analogous substrates is described by L. A. Reiter (Int. J. Peptide Protein Res., 43, pp. 87-96 (1994)). The assay mixture contains:
The visible ICE assay is run in a 96-well microtiter plate. Buffer, ICE and DMSO (if inhibitor is present) are added to the wells in the order listed. The components are left to incubate at room temperature for 15 minutes starting at the time that all components are present in all wells. The microtiter plate reader is set to incubate at 37° C. After the 15 minute incubation, substrate is added directly to the wells and the reaction is monitored by following the release of the chromophore (pNA) at 405-603 nm at 37° C. for 20 minutes. A linear fit of the data is performed and the rate is calculated in mOD/min. DMSO is only present during experiments involving inhibitors, buffer is used to make up the volume to 100 μl in the other experiments.
This assay is run essentially according to Thornberry et al., Nature, 356 pp. 768-774 (1992), using substrate 17 referenced in that article. The substrate is: Acetyl-Tyr-Val-Ala-Asp-amino-4-methylcoumarin (AMC). The following components are mixed:
The assay is run in a 96-well microtiter plate. Buffer and ICE are added to the wells. The components are left to incubate at 37° C. for 15 minutes in a temperature-controlled wellplate. After the 15 minute incubation, the reaction is started by adding substrate directly to the wells and the reaction is monitored at 37° C. for 30 minutes by following the release of the AMC fluorophore using an excitation wavelength for 380 nm and an emission wavelength of 460 nm. A linear fit of the data for each well is performed and a rate is determined in fluorescence units per second.
(§1) For determination of enzyme inhibition constants (Ki) or the mode of inhibition (competitive, uncompetitive or noncompetitive), the rate data determined in the enzyme assays at varying inhibitor concentrations are computer-fit to standard enzyme kinetic equations (see I. H. Segel, Enzyme Kinetics, Wiley-Interscience, 1975).

[2] = system: Human whole blood; assay: Whole blood assay for IL-1β production; format: cell-based; conditions: LPS 5.0 ng/ml, 16-18 hr at 30° C.
Experimental: The whole blood assay is a simple method for measuring the production of IL-1β (or other cytokines) and the activity of potential inhibitors. The complexity of this assay system, with its full complement of lymphoid and inflammatory cell types, spectrum of plasma proteins and red blood cells is an ideal in vitro representation of human in vivo physiologic conditions.
Human whole blood sample (^˜30-50 cc) 1.5 ml Eppendorf tubes
Set incubator or water bath at 30°C. Aliquot 0.25 ml of blood into 1.5 ml Eppendorf tubes. Note: be Sure to invert the whole blood sample tubes after every two aliquots. Differences in replicates may result if is the cells sediment and are not uniformly suspended. Use of a positive displacement pipette will also minimize differences between replicate aliquots.
Prepare drug dilutions in sterile pyrogen-free saline by serial dilution. A dilution series which brackets the apparent Ki for a test compound determined in an ICE inhibition assay is generally used for the primary compound screen. For extremely hydrophobic compounds, prepare compound dilutions in fresh plasma obtained from the same blood donor or in PBS-containing 5% DMSO to enhance solubility.
Add 25 μl test compound dilution or vehicle control and gently mix the sample. Then add 5.0 μl LPS solution (250 ng/ml stocked prepared fresh: 5.0 ng/ml final concentration LPS), and mix again. Incubate the tubes at […] in a water bath for 16-18 hr with occasional mixing. Alternatively, the tubes can be placed in a rotator set at 4 rpm for the same incubation period. This assay should be set up in duplicate or triplicate with the following controls: negative control—no LPS; positive control—no test inhibitor; vehicle control—the highest concentration of DMSO or compound solvent used in the experiment. Additional saline is added to all control tubes to normalize volumes for both control and experimental whole blood test samples.
After the incubation period, whole blood samples are centrifuged for 10 minutes at ^˜2000 rpm in the microfuge, plasma is transferred to a fresh microfuge tube and centrifuged at 1000×g to pellet residual platelets if necessary. Plasma samples may be stored frozen at −70° C. prior to assay for cytokine levels by ELISA.
R & D Systems (6.14 McKinley Place N.E. Minneapolis, Minn. 55413) Quantikine kits may be used for measurement of IL-1β and TNF-α. The assays are performed according to the manufacturer's directions. IL-1β levels of ^˜1-5 ng/ml in positive controls among a range of individuals may be observed. A 1:200 dilution of plasma for all samples is usually sufficient for experiments for ELISA results to fall on the linear range of the ELISA standard curves. It may be necessary to optimize standard dilutions if you observe differences in the whole blood assay. Nerad, J. L. et al., J. Leukocyte Biol., 52, pp. 687-692 (1992).

[3] = system: Human Peripheral Blood Mononuclear Cells (PBMC); assay: PBMC cell assay: IL-1β assay with LPS-stimulated human PBMC; format: cell-based; conditions: mature IL-1β in supernatant, LPS 5 ng/ml, 16-18 hr
Source text: IL-1β Assay with a Mixed Population of Human Peripheral Blood Mononuclear Cells (PBMC) or Enriched Adherent Mononuclear Cells
Processing of pre-IL-1β by ICE can be measured in cell culture using a variety of cell sources. Human PBMC obtained from healthy donors provides a mixed population of lymphocyte subtypes and mononuclear cells that produce a spectrum of interleukins and cytokines in response to many classes of physiological stimulators. Adherent mononuclear cells from PBMC provides an enriched source of normal monocytes for selective studies of cytokine production by activated cells.
An initial dilution series of test compound in DMSO or ethanol is prepared, with a subsequent dilution into RPMI-10% FBS media (containing 2 mM L-glutamine, 10 mM HEPES, 50 U and 50 μg/ml pen/strep) respectively to yield drugs at 4×the final test concentration containing 0.4% DMSO or 0.4% ethanol. The final concentration of DMSO is 0.1% for all drug dilutions. A concentration titration which brackets the apparent Ki for a test compound determined in an ICE inhibition assay is generally used for the primary compound screen.
Generally 5-6 compound dilutions are tested and the cellular component of the assay is performed in duplicate, with duplicate ELISA determinations on each cell culture supernatant.
Buffy coat cells isolated from one pint human blood (yielding 40-45 ml final volume plasma plus cells) are diluted with media to 80 ml and LeukoPREP separation tubes (Becton Dickinson) are each overlaid with 10 ml of cell suspension. After 15 min centrifugation at 1500-1800×g, the plasma/media layer is aspirated and then the mononuclear cell layer is collected with a Pasteur pipette and transferred to a 15 ml conical centrifuge tube (Corning). Media is added to bring the volume to 15 ml, gently mix the cells by inversion and centrifuge at 300×g for 15 min. The PBMC pellet is resuspended in a small volume of media, the cells are counted and adjusted to 6×10^6 cells/ml.
For the cellular assay, 1.0 ml of the cell suspension is added to each well of a 24-well flat bottom tissue culture plate (Corning), 0.5 ml test compound dilution and 0.5 ml LPS solution (Sigma #L-3012; 20 ng/ml solution prepared in complete RPMI media; final LPS concentration 5 ng/ml). The 0.5 ml additions of test compound and LPS are usually sufficient to mix the contents of the wells. Three control mixtures are run per experiment, with either LPS alone, solvent vehicle control, and/or additional media to adjust the final culture volume to 2.0 ml. The cell cultures are incubated for 16-18 hr at 37° C. in the presence of 5% CO2.
At the end of the incubation period, cells are harvested and transferred to 15 ml conical centrifuge tubes. After centrifugation for 10 min at 200×g, supernatants are harvested and transferred to 1.5 ml Eppendorf tubes. It may be noted that the cell pellet may be utilized for a biochemical evaluation of pre-IL-1β and/or mature IL-1β content in cytosol extracts by Western blotting or ELISA with pre-IL-1β specific antisera.
PBMC are isolated and prepared as described above. Media (1.0 ml) is first added to wells followed by 0.5 ml of the PBMC suspension. After a one hour incubation, plates are gently shaken and nonadherent cells aspirated from each well. Wells are then gently washed three times with 1.0 ml of media and final resuspended in 1.0 ml media. The enrichment for adherent cells generally yields 2.5-3.0×10^5 cells per well. […]

[4] = biological target: Flice Caspase-8 (Homo sapiens, UniProt Q14790); assay: Flice (Caspase-8) enzyme inhibition, Ki; format: biochemical; conditions: in vitro enzyme assay
Chain of Flice Caspase-8 (Q14790 217-374 limits assumed): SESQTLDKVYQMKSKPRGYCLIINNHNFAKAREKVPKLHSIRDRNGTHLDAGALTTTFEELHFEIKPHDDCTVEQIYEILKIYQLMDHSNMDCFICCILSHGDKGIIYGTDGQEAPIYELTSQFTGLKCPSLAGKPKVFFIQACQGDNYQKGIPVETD
Chain of Flice Caspase-8 (Q14790 385-479 limits assumed): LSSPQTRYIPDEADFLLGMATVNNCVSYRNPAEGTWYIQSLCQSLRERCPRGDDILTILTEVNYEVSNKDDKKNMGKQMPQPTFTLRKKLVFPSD
Source text: (§2) Other assays that may be used to evaluate the compounds of this invention are disclosed in PCT application PCT/US96/20843, published Jun. 26, 1997, under publication no. WO 97/22619, which is incorporated herein by reference. Such assays include in vivo bioavailability determinations, pharmacokinetic studies in the mouse, inhibition of ICE homologs, inhibition of apoptosis, in vivo acute assay for anti-inflammatory efficacy, measurement of blood levels, IGIF assays, mouse carrageenan peritoneal inflammation assay, and type II collagen-induced arthritis.
as §1

[5] = biological target: T2, CPP32 Caspase-3 (Homo sapiens, UniProt P42574); assay: CPP32 (Caspase-3) enzyme inhibition, Ki; format: biochemical; conditions: in vitro enzyme assay
T2 sequence (P42574 29-175 limits assumed): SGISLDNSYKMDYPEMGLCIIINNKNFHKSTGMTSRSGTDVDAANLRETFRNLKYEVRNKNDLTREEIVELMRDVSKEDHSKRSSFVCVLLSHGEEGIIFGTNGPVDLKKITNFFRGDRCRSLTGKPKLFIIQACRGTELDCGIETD
T2 sequence (P42574 176-277 limits assumed): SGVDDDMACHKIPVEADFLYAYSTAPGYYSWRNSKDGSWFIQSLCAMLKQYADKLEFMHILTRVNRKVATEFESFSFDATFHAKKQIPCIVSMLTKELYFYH
Source text: as §2, §1

Ki [1]	IC50 [2]	Ki [4]	Ki [5]	SMILES	IC50 [3]
0.9 nM	830 nM			CC(C(=O)N[C@H](C=O)CC(=O)O)N1C(=O)[C@@H](NC(=O)c2cc(Cl)c(O)c(Cl)c2)CCC(=O)N1C (mixture of isomers) [Compound 20, 3-{2-[6-(3,5-Dichloro-4-hydroxy-benzoylamino)-2-methyl-3,7-dioxo-[1,2]diazepan-1-yl]-propionylamino}-4-oxo-butyric acid]	540 nM
101 nM	7300 nM			O=C[C@H](CC(=O)O)NC(=O)CN1C(=O)[C@@H](NC(=O)c2nccc3ccccc23)CCC(=O)N1Cc1ccccc1 [Compound 11a, 3-(2-{2-Benzyl-6-[(isoquinoline-1-carbonyl)-amino]-3,7-dioxo-[1,2]diazepan-1-yl}-acetylamino)-4-oxo-butyric acid]	1400 nM
120 nM	5800 nM			CCCN1C(=O)CC[C@H](NC(=O)c2nccc3ccccc23)C(=O)N1CC(=O)N[C@H](C=O)CC(=O)O [Compound 11b, 3-(2-(6-[(Isoquinoline-1-carbonyl)-amino]-3,7-dioxo-2-propyl-[1,2]diazepan-1-yl)-acetylamino)-4-oxo-butyric acid]	1500 nM
16 nM	1450 nM	1500 nM	22200 nM	CCCN1C(=O)CC[C@H](NC(=O)c2cc(Cl)c(O)c(Cl)c2)C(=O)N1CC(=O)N[C@H](C=O)CC(=O)O [Compound 11c, 3-{2-[6-(3,5-Dichloro-4-hydroxy-benzoylamino)-3,7-dioxo-2-propyl-[1,2]diazepan-1-yl]-acetylamino}-4-oxo-butyric acid]	420 nM
17 nM	1900 nM			CS(=O)(=O)N1CCC[C@H](NC(=O)c2cc(Cl)c(O)c(Cl)c2)C(=O)N1CC(=O)N[C@H](C=O)CC(=O)O [Compound 27, 3-{2-[6-(3,5-Dichloro-4-hydroxy-benzoylamino)-2-methanesulfonyl-7-oxo-[1,2]diazepan-1-yl]-acetylamino}-4-oxo-butyric acid]	1000 nM
